The results in this text go back to patent US10669242B2 (priority 2016, dated 2020).

Assay [1] has as its target T1, recombinant glucosyltransferase domain of C. difficile Toxin B/TcdB (Clostridioides difficile, UniProt P18177).
T1 construct: 6-His (C); purchased R&D Systems 6246-GT
Nature of the assay: biochemical.

In assay [2] the target is T2, C. difficile full-length toxin TcdA (Clostridioides difficile, UniProt P16154).
T2 construct: C. difficile full-length toxins (TcdA or TcdB); purchased Enzo Life Sciences BML-G140-0050
Nature of the assay: cell-based.

Assay [3] concerns the target T3, C. difficile full-length toxin TcdB (Clostridioides difficile, UniProt P18177).
T3 construct: C. difficile full-length toxins (TcdA or TcdB); purchased EMD Millipore 616377
Nature of the assay: cell-based.

Assay [4] concerns C. difficile toxin (TcdA and TcdB, ~1:1). Briefly: Murine C. difficile toxin model (intrarectal toxin). Format: in vivo, C57BL/6 mice. Conditions: murine C. difficile toxin model, PO, 50 mg/kg body weight. The method, then: In the following studies, we established a murine C. difficile toxin model with modifications from a published murine model (Hirota, Iablokov et al. 2012). Details of the murine C. difficile toxin model are described in the “Experimental Protocols” (below). C. difficile toxins were isolated from a culture of the C. difficile strain VPI 10463. C. difficile toxins consisted of TcdA and TcdB (˜1:1 ratio of TcdA:TcdB). Respective TcdA and TcdB concentrations were determined by enzyme-linked immunosorbant assay (ELISA). In our mouse model, C. difficile toxins were administered intrarectally to evaluate their pathological effects.
We administered C. difficile toxin (12.5 μg/mouse) via intrarectal instillation into female C57BL/6 mice. Four (4) animals were used in each group. Four (4) hours after the toxin administration, the mice were euthanized. The colons were excised from the animals and washed with phosphate buffered saline (PBS). The colon lengths were measured. Excised colon tissues were stored at −70° C. for chemical analysis of interleukin-1β(IL-1β) and myeloperosidase (MPO) in tissues, which are the hallmarks of colon inflammation. Excised colon tissues were also stored at room temperature in 10% neutral buffered formalin for histopathological analysis.
Using the murine C. difficile toxin model (Example 61), we evaluated the efficacy of Example 6a in reducing the C. difficile toxin activity. In this study, the isolated toxin (12.5 μg) was diluted in 50 μl of PBS and mixed with a 50 μl suspension of Example 6a (10 mg/mL) in 1% carboxymethyl cellulose and 0.5% Tween 80 to achieve a fixed dose of […] of Example 6a (0.5 mg in mice weighing ˜20 g) and C. difficile toxin (12.5 μg). Three (3) animals were used in each group.
In this study, we evaluated the efficacy of Example 6a via different routes of administration (i.e., oral (PO) and intraperitoneal (IP) administrations) in the same murine C. difficile toxin model (Example 61). In both PO and IP dosages, Example 6a was prepared as 5 mg/mL solutions in 20% PEG-400, 0.4% carboxymethyl cellulose and 0.2% Tween 80. Example 6a was administered at a final dose of 50 mg/kg body weight. Three (3) mice were used in each group (i.e., vehicle (control), PO and IP).
Using the murine C. difficile toxin model (Example 63), we further tested the efficacy of four (4) additional compounds (i.e., Example 6a, Example 5ae, Example 4cl, and Example 5al) via PO administration. All of the compounds were dosed orally at 50 mg/kg body weight. In three separate studies a total of three (3) to fourteen (14) mice were used in each group.
We evaluated the efficacy of additional compounds in reducing C. difficile toxicity. Using the PO administration (Example 63), we further tested 30 compounds (Table 34). All of the compounds were dosed orally at 50 mg/kg body weight. Three (3) to fourteen (14) animals were used for each compound. % inhibition was determined by the following formula: […]
An overnight culture of C. difficile strain VPI 10463 (American Type Culture Collection) was grown at 37° C. in Brain-Heart Infusion (BHI) broth using the GasPak EZ Anaerobe Pouch System (Becton Dickinson). 2 mL of the culture was added to 28 mL of phosphate buffered saline (PBS) in a gamma-irradiated, 10,000 molecular weight cut-off, 30-70 ml Slide-A-Lyzer G2 dialysis cassette (Pierce). This cassette was submerged in 1 L of BHI broth in a 2 L beaker and incubated under anaerobic conditions for 5 days at 37° C. The culture was then transferred to a 50 mL conical tube and the cassette was washed with 10 mL of PBS. The combined culture and wash were centrifuged at 2,000 g for 20 minutes to pellet the bacteria and the supernatant was filtered through a 0.2 μm syringe filter. The filtrate was then applied to a 20 mL 150 K molecular weight cut-off concentration column (Pierce) and centrifuged at 2,000 g for 15 minutes. Concentrated supernatant was stored at 4° C. […]

T3 sequence (P18177 2-2366 limits assumed): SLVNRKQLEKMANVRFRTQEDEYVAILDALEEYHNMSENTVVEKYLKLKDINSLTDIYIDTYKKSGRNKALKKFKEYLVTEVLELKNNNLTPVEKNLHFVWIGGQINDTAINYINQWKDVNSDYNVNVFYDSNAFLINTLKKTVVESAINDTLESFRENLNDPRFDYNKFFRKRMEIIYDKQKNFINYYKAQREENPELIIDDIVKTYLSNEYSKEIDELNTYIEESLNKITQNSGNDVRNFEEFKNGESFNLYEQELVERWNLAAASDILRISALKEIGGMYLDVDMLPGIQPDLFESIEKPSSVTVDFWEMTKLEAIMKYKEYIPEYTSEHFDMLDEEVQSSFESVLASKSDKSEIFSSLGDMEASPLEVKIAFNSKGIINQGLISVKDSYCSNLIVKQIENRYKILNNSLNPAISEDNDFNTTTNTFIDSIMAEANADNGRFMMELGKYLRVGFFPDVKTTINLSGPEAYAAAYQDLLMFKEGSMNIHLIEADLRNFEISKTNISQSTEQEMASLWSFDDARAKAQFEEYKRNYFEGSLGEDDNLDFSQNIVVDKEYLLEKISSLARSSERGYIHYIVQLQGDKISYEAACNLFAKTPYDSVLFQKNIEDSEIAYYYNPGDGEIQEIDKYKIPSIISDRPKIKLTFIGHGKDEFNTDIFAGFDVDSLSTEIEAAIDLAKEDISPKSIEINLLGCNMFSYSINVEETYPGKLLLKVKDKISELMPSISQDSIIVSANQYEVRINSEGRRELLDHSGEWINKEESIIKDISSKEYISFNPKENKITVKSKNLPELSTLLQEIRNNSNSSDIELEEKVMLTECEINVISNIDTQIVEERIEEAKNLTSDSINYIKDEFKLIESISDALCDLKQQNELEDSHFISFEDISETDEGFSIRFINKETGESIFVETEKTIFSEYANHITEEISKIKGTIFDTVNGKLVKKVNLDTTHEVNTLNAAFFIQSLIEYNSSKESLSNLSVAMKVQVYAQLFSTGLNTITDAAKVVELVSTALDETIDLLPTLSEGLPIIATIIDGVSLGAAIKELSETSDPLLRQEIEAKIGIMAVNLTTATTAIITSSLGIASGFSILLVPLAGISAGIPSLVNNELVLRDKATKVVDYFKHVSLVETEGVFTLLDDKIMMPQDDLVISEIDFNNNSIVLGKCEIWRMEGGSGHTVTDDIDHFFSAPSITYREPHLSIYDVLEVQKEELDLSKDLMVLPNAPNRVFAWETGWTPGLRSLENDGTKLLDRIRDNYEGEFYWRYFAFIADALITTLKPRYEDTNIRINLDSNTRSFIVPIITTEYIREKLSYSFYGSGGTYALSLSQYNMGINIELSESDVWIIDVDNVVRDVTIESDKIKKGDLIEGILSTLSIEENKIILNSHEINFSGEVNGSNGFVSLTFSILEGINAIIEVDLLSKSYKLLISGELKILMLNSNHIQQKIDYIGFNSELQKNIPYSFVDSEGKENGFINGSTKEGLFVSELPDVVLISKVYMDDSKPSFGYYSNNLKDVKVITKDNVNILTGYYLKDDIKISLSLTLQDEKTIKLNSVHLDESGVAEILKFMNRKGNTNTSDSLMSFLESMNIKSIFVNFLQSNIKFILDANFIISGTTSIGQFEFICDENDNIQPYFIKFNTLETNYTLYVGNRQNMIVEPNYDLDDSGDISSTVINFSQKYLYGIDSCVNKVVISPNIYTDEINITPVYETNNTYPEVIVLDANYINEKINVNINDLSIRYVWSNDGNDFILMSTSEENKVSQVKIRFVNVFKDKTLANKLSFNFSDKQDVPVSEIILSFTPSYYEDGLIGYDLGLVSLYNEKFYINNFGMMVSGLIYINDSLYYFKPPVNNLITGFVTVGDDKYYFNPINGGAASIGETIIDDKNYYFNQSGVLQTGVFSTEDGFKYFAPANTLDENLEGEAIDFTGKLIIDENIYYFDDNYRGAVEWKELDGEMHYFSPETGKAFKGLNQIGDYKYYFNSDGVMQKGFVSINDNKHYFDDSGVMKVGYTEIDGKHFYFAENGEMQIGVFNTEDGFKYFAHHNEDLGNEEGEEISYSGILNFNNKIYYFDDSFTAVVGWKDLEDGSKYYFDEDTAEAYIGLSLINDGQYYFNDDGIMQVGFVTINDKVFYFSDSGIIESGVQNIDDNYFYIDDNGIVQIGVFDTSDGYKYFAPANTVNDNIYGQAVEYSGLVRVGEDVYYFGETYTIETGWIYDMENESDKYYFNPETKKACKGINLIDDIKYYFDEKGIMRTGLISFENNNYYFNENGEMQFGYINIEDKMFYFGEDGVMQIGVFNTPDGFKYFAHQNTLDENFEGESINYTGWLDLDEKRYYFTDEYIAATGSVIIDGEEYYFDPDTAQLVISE
T1 sequence (P18177 1-543): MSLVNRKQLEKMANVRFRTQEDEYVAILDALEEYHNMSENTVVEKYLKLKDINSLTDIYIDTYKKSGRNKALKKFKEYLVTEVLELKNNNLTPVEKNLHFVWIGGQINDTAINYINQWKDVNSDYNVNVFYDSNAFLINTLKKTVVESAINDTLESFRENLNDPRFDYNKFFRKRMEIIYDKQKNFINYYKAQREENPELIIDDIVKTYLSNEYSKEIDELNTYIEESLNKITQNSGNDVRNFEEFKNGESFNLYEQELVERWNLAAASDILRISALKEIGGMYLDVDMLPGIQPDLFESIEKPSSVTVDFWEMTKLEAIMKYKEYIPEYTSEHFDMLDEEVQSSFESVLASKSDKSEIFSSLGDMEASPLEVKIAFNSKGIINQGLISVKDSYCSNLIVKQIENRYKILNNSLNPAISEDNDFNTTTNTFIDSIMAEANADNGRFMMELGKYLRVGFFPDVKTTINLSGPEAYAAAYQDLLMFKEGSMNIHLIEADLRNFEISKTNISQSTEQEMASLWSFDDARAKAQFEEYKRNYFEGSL

As to `Cc1cnc(NC(=O)c2ccc(CN3C(=O)c4ccc(Cl)cc4NC(=O)[C@H]3Cc3ccccn3)cc2Cl)cn1` [Example 5aa, (R)-2-Chloro-4-((8-chloro-2,5-dioxo-3-(pyridin-2-ylmethyl)-2,3-dihydro-1H-benzo[e][1,4]diazepin-4(5H)-yl)methyl)-N-(5-methylpyrazin-2-yl)benzamide], the half-inhibitory concentration (IC50) in assay [1] is < 100 nM; in assay [2] it was 1000 to 10000 nM; in assay [3], 100 to 999 nM. Moreover, the “IL-1β (% Inhibition)” value in assay [4] was 63%. In assay [4], the “MPO (% Inhibition)” value turned out to be 50%.
Taken in the same sequence, the figures for `Cn1cc(C(=O)[C@H]2CC[C@H](CN3C(=O)c4ccc(Cl)cc4NC(=O)[C@H]3Cc3ccccn3)CC2)c2ncccc21` [Example 33b, (R)-8-Chloro-4-(((1r,4R)-4-(1-methyl-1H-pyrrolo[3,2-b]pyridine-3-carbonyl)cyclohexyl)methyl)-3-(pyridin-2-ylmethyl)-3,4-dihydro-1H-benzo[e][1,4]diazepine-2,5-dione] were < 100 nM, 1000 to 10000 nM, 100 to 999 nM, 84% and 41%.
Taken in the same sequence, the figures for `Cc1ccc(NC(=O)c2ccc(CN3C(=O)c4ccc(Cl)cc4NC(=O)[C@H]3Cc3ccccn3)cc2C)nc1` [Example 4ck, (R)-4-((8-Chloro-2,5-dioxo-3-(pyridin-2-ylmethyl)-2,3-dihydro-1H-benzo[e][1,4]diazepin-4(5H)-yl)methyl)-2-methyl-N-(5-methylpyridin-2-yl)benzamide] were < 100 nM, 100 to 999 nM, < 100 nM, 82% and 79%.
As to `COc1ccc(NC(=O)c2ccc(CN3C(=O)c4ccc(Cl)cc4NC(=O)[C@H]3Cc3ccccn3)cc2Cl)nc1` [Example 4by, (R)-2-Chloro-4-((8-chloro-2,5-dioxo-3-(pyridin-2-ylmethyl)-2,3-dihydro-1H-benzo[e][1,4]diazepin-4(5H)-yl)methyl)-N-(5-methoxypyridin-2-yl)benzamide], the IC50 in assay [1] was < 100 nM; in assay [2], 100 to 999 nM; in assay [3], < 100 nM. Besides, in assay [4], the “IL-1β (% Inhibition)” value is listed as 46%. In assay [4], the “MPO (% Inhibition)” value amounted to 1%.
Turning to `Cc1cnc(NC(=O)c2ccc(CN3C(=O)c4ccc(Cl)cc4NC(=O)[C@H]3Cc3ccccn3)cc2C)cn1` [Example 5ah, (R)-4-((8-Chloro-2,5-dioxo-3-(pyridin-2-ylmethyl)-2,3-dihydro-1H-benzo[e][1,4]diazepin-4(5H)-yl)methyl)-2-methyl-N-(5-methylpyrazin-2-yl)benzamide], the IC50 is < 100 nM in assay [1], 1000 to 10000 nM in assay [2] and 100 to 999 nM in assay [3]. In addition, in assay [4], the “IL-1β (% Inhibition)” value was 91%. Besides, the “MPO (% Inhibition)” value in assay [4] turned out to be 65%.
With `COc1cnc(NC(=O)c2ccc(CN3C(=O)c4ccc(Cl)cc4NC(=O)[C@H]3Cc3ccccn3)cc2OC)cn1` [Example 5ak, (R)-4-((8-Chloro-2,5-dioxo-3-(pyridin-2-ylmethyl)-2,3-dihydro-1H-benzo[e][1,4]diazepin-4(5H)-yl)methyl)-2-methoxy-N-(5-methoxypyrazin-2-yl)benzamide], the 50% inhibitory concentration (IC50) in assay [1] was < 100 nM; in assay [2] it was 1000 to 10000 nM; in assay [3], 100 to 999 nM. In addition, in assay [4], the “IL-1β (% Inhibition)” value turned out to be 71%. The “MPO (% Inhibition)” value in assay [4] amounted to 73%.
As to `COc1cc(CN2C(=O)c3ccc(Cl)cc3NC(=O)[C@H]2Cc2ccccn2)ccc1C(=O)Nc1ncc(C)cn1` [Example 5am, (R)-4-((8-Chloro-2,5-dioxo-3-(pyridin-2-ylmethyl)-2,3-dihydro-1H-benzo[e][1,4]diazepin-4(5H)-yl)methyl)-2-methoxy-N-(5-methylpyrimidin-2-yl)benzamide], the IC50 in assay [1] was < 100 nM; in assay [2], 1000 to 10000 nM; in assay [3], 100 to 999 nM. In addition, the “IL-1β (% Inhibition)” value in assay [4] is given as 54%. Besides, the “MPO (% Inhibition)” value in assay [4] was 31%.
Taken in the same sequence, the figures for `Cc1cnc2c(c1)CCN2C(=O)c1ccc(CN2C(=O)c3ccc(Cl)cc3NC(=O)[C@H]2Cc2ccccn2)cc1Cl` [Example 4ad, (R)-8-Chloro-4-(3-chloro-4-(5-methyl-2,3-dihydro-1H-pyrrolo[2,3-b]pyridine-1-carbonyl)benzyl)-3-(pyridin-2-ylmethyl)-3,4-dihydro-1H-benzo[e][1,4]diazepine-2,5-dione] were < 100 nM, 100 to 999 nM, < 100 nM, 80% and 100%.
For `COc1cc(CN2C(=O)c3ccc(Cl)cc3NC(=O)[C@H]2Cc2ccccn2)ccc1C(=O)Nc1ccc(C(F)(F)F)cn1` [Example 4au, (R)-4-((8-Chloro-2,5-dioxo-3-(pyridin-2-ylmethyl)-2,3-dihydro-1H-benzo[e][1,4]diazepin-4(5H)-yl)methyl)-2-methoxy-N-(5-(trifluoromethyl)pyridin-2-yl)benzamide], the concentration for half-maximal inhibition (IC50) in assay [1] was < 100 nM; in assay [2] it was > 10000 nM; in assay [3] it was 100 to 999 nM. Further, in assay [4], the “IL-1β (% Inhibition)” value is listed as 40%. For the same molecule, in assay [4], the “MPO (% Inhibition)” value is on record as 0%.
For `O=C1Nc2cc(Cl)ccc2C(=O)N(Cc2ccc(N3Cc4cccnc4C3=O)cc2)[C@@H]1Cc1ccccn1` [Example 49c, (R)-8-Chloro-4-(4-(7-oxo-5H-pyrrolo[3,4-b]pyridin-6(7H)-yl)benzyl)-3-(pyridin-2-ylmethyl)-3,4-dihydro-1H-benzo[e][1,4]diazepine-2,5-dione], the half-inhibitory concentration (IC50) was < 100 nM in assay [1], > 10000 nM in assay [2] and > 10000 nM in assay [3]. Moreover, the “IL-1β (% Inhibition)” value in assay [4] amounted to 30%. In assay [4], the “MPO (% Inhibition)” value was determined as 0%.
`O=C1Nc2cc(Cl)ccc2C(=O)N(Cc2ccc(N3CCc4cccnc4C3=O)cc2)[C@@H]1Cc1ccccn1` [Example 49b, (R)-8-Chloro-4-(4-(8-oxo-5,6-dihydro-1,7-naphthyridin-7(8H)-yl)benzyl)-3-(pyridin-2-ylmethyl)-3,4-dihydro-1H-benzo[e][1,4]diazepine-2,5-dione]: the half-maximal inhibitory concentration (IC50) is < 100 nM in assay [1], > 10000 nM in assay [2] and 1000 to 10000 nM in assay [3]. For the same molecule, the “IL-1β (% Inhibition)” value in assay [4] is given as 13%. Moreover, the “MPO (% Inhibition)” value in assay [4] was determined as 0%.

Broadly, the IC50 is the concentration at which inhibition is half-maximal.
